Drawing on PubChem BioAssay (NCI), this text covers TGI and GI50 for five molecules.

Among the test systems are A498 renal; M14 melanoma; T-47D breast; HCT-15 colon; MCF7 breast; SF-295 CNS; A549 NSCLC; NCI-H460 lung; DU-145 prostate; SK-MEL-28 melanoma.
Common to all, as to assay: growth of human tumour cells (NCI), 48 h

Each structure is given as a SMILES string.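 Briefly, cells in 96-well plates were exposed to five compound concentrations for 48 h, and endpoints were estimated by linear interpolation. The concentration for 50% growth inhibition is given as GI50. TGI marks complete inhibition of growth.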 Bounds are passed on as bounds.

Regarding `CC(=O)C1=C(O)C2(O)C(=O)c3c(c(C)c4ccc(C)c(O)c4c3O)CC2C(N)C1=O` (stereo not drawn), the TGI in the experiment with A498 renal was 8.45 µM; in the experiment on M14 melanoma, 23.1 µM; in the experiment with T-47D breast it was 30.5 µM; with HCT-15 colon it was 9.99 µM; in the experiment on MCF7 breast it was 18.3 µM; in the experiment on SF-295 CNS, 5.6 µM. Further, the TGI with A549 NSCLC came out at 11.5 µM; in the experiment on NCI-H460 lung, 9.2 µM; in the experiment with DU-145 prostate, 14.7 µM; in the experiment on SK-MEL-28 melanoma, 13.3 µM. The values for the GI50 in the experiment with T-47D breast, in the experiment with MCF7 breast and in the experiment with DU-145 prostate were 2.33 µM, 2.84 µM and 2.41 µM, respectively.
On to `CN1CCN(CCCOc2ccc3ncnc(Nc4ccc(Oc5cccc(C(F)(F)F)c5)c(Cl)c4)c3c2)CC1`, for which the GI50 in the experiment on A498 renal is 1.42 µM; with M14 melanoma, 1.87 µM; in the experiment with T-47D breast, 1.39 µM; in the experiment with HCT-15 colon, 1.33 µM; in the experiment with MCF7 breast, 1.38 µM; with SF-295 CNS, 1.66 µM. Also, the GI50 was 1.27 µM in the experiment on A549 NSCLC, 1.73 µM in the experiment with NCI-H460 lung, 1.66 µM with DU-145 prostate and 1.63 µM in the experiment with SK-MEL-28 melanoma. Further, the TGI in the experiment with A498 renal was found to be 3.23 µM; in the experiment on M14 melanoma, 3.87 µM; with T-47D breast it was 4.02 µM; with HCT-15 colon it was 2.88 µM; in the experiment with MCF7 breast it was 3.06 µM; in the experiment with SF-295 CNS, 3.13 µM. Further, the TGI was 2.74 µM in the experiment with A549 NSCLC, 3.37 µM in the experiment on NCI-H460 lung, 3.49 µM with DU-145 prostate and 3.01 µM with SK-MEL-28 melanoma.
As to `N#CCc1[nH]nc2nc(SCc3ccccc3)nc(N3CCCCC3)c12`, the TGI with A498 renal was 73.4 µM; in the experiment with M14 melanoma, 34.8 µM; with T-47D breast it was 39.1 µM; in the experiment with HCT-15 colon, greater than 100 µM; with MCF7 breast, 40.4 µM; with SF-295 CNS, 35.3 µM. Also, the TGI came to 34.5 µM in the experiment with A549 NSCLC, 37.9 µM in the experiment on NCI-H460 lung, 33.6 µM with DU-145 prostate and 45.8 µM in the experiment with SK-MEL-28 melanoma.
Take `COc1ccc(/C=c2/[nH]c(=O)/c(=C\c3ccc(OCc4ccccc4)cn3)[nH]c2=O)cc1`: the TGI with A498 renal, in the experiment on M14 melanoma, with T-47D breast, with HCT-15 colon, in the experiment with MCF7 breast and in the experiment on SF-295 CNS was greater than 100 µM each time. The TGI in the experiment with A549 NSCLC, in the experiment with NCI-H460 lung, in the experiment with DU-145 prostate and in the experiment with SK-MEL-28 melanoma was greater than 100 µM throughout.
Turning to `Cc1c(Cl)c(=O)oc2cc(OCC(=O)c3ccccc3)ccc12`, the TGI in the experiment with A498 renal, in the experiment on M14 melanoma, with T-47D breast, in the experiment on HCT-15 colon, with MCF7 breast and in the experiment on SF-295 CNS was greater than 100 µM in each case. Moreover, the TGI in the experiment on A549 NSCLC, in the experiment on NCI-H460 lung, in the experiment on DU-145 prostate and with SK-MEL-28 melanoma was greater than 100 µM throughout.
